Measurements reported in patent US12091425B2 (AMGEN INC., priority 2016, dated 2024).

Key:
[1] = target: T1, Mcl-1/Bim interaction, recombinant human Mcl-1 (171-327) (Homo sapiens, UniProt Q07820); test: Cell free Mcl-1: Bim Affinity Assay (Mcl-1 HTRF); assay type: binding; details: TR-FRET, 0.1 nM Mcl-1 (171-327), 0.05 nM biotin-Bim (51-76)
T1 construct: made in house
Summary of the method: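 Displacement of biotinylated Bim 51-76 peptide is followed by TR-FRET. Incubation runs overnight. Duplicate points are fitted with a four-parameter sigmoid to yield IC50.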

[2] = system: OPM-2 human multiple myeloma cell line; test: Cell Viability Assay (OPM-2 10 FBS); assay type: cell-based; details: OPM-2 cells, CellTiter-Glo
Summary of the method: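 ATP-based luminescence (CellTiter-Glo) measured after a 16 h compound treatment of OPM-2 cells seeded at 3000 cells/well in 10% FBS medium. IC50 values derived by 4-parameter logistic fitting of serial dilutions.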

[3] = Homo sapiens, OPM-2, 16 h, 16 h incubation
[4] = Homo sapiens, OPM-2, 16 h, 16 h

T1 sequence (Q07820 171-327): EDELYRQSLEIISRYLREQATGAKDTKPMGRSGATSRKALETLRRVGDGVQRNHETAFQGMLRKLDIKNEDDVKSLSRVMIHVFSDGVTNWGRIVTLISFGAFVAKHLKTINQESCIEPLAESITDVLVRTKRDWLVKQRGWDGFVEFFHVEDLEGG

SMILES | IC50 [1] [nM] | IC50 [2, 3] [nM] | IC50 [2, 4] [nM] | IC50 ([2]; 16 h incubation) [nM]
COCCO[C@H]1/C=C/C[C@@H]2COC[C@H]2S(=O)(=O)NC(=O)c2ccc3c(c2)N(C[C@@H]2CC[C@H]21)C[C@@]1(CCCc2cc(Cl)ccc21)CO3 (single isomer, unassigned) [Example 1033] | 0.366 | – | – | 205
COCCO[C@H]1/C=C/C[C@H]2COC[C@@H]2S(=O)(=O)NC(=O)c2ccc3c(c2)N(C[C@@H]2CC[C@H]21)C[C@@]1(CCCc2cc(Cl)ccc21)CO3 (single isomer, unassigned) [Example 1034] | 4.04 | – | – | 8050
O=C1NS(=O)(=O)C2COCC2CC=CC(O)C2CCC2CN2CC3(CCCc4cc(Cl)ccc43)COc3ccc1cc32 (single isomer, unassigned) [Example 1036] | 1.36 | 11300 | – | –
COC[C@@H]1C[C@@H](C)CC[C@H](O)[C@@H]2CC[C@H]2CN2C[C@@]3(CCCc4cc(Cl)ccc43)COc3ccc(cc32)C(=O)NS1(=O)=O (single isomer, unassigned) [Example 1037] | 0.831 | – | – | 744
COCCO[C@H]1/C=C/C(C)C[C@@H](COC)S(=O)(=O)NC(=O)c2ccc3c(c2)N(C[C@@H]2CC[C@H]21)C[C@@]1(CCCc2cc(Cl)ccc21)CO3 (single isomer, unassigned) [Example 1039] | 0.389 | – | – | 198
COCCO[C@H]1CC[C@@H](C)C[C@@H](COC)S(=O)(=O)NC(=O)c2ccc3c(c2)N(C[C@@H]2CC[C@H]21)C[C@@]1(CCCc2cc(Cl)ccc21)CO3 (single isomer, unassigned) [Example 1040] | 1.04 | – | – | 2190
C[C@@H]1[C@@H](C)S(=O)(=O)NC(=O)c2ccc3c(c2)N(C[C@@H]2CC[C@H]2[C@@H](O)/C=C/[C@@H]1C)C[C@@]1(CCCc2cc(Cl)ccc21)CO3 (single isomer, unassigned) [Example 1041] | 0.183 | 77.2 | – | –
C[C@H]1/C=C/[C@H](O)[C@@H]2CC[C@H]2CN2C[C@@]3(CCCc4cc(Cl)ccc43)COc3ccc(cc32)C(=O)NS(=O)(=O)[C@@H]2COC[C@H]21 (single isomer, unassigned) [Example 1058] | 0.249 | – | – | 456
COCCO[C@H]1/C=C/[C@H](C)[C@H](C)CS(=O)(=O)NC(=O)c2ccc3c(c2)N(C[C@@H]2CC[C@H]21)C[C@@]1(CCCc2cc(Cl)ccc21)CO3 (single isomer, unassigned) [Example 1065] | 0.402 | – | – | 94.9
C[C@@H]1[C@@H](C)C=C/C=C/[C@@H]2CC[C@H]2CN2C[C@@]3(CCCc4cc(Cl)ccc43)COc3ccc(cc32)C(=O)NS1(=O)=O (stereo in doubt) [Example 372, (1S,3′R,6′S,7′E,9′E,11′S,12′R)-6-chloro-11′,12′-dimethyl-3,4-dihydro-2H,15′H-spiro[naphthalene-1,22′-[20]oxa[13]thia[1,14]diazatetracyclo[14.7.2.0^3,6.0^19,24]pentacosa [7,9,16,18,24]pentaen]-15′-one 13′,13′-dioxide] | 9.49 | – | 14600 | –
CO[C@H]1/C=C/C[C@H](CO)[C@@H](C)S(=O)(=O)NC(=O)c2ccc3c(c2)N(C[C@@H]2CC[C@H]21)C[C@@]1(CCCc2cc(Cl)ccc21)CO3 [Example 1, (1S,3′R,6′R,7′S,8′E,11′R,12′R)-6-chloro-11′-(hydroxymethyl)-7′-methoxy-12′-methyl-3,4-dihydro-2H,15′H-spiro[naphthalene-1,22′-[20]oxa[13]thia[1,14]diazatetracyclo[14.7.2.0^3,6.0^19,24]pentacosa [8,16,18,24]tetraen]-15′-one 13′,13′-dioxide] | 0.34 | – | 254 | –
CO[C@H]1/C=C/C[C@H](CF)[C@@H](C)S(=O)(=O)NC(=O)c2ccc3c(c2)N(C[C@@H]2CC[C@H]21)C[C@@]1(CCCc2cc(Cl)ccc21)CO3 [Example 5, (1S,3′R,6′R,7′S,8′E,11′R,12′R)-6-chloro-11′-(fluoromethyl)-7′-methoxy-12′-methyl-3,4-dihydro-2H,15′H-spiro[naphthalene-1,22′-[20]oxa[13]thia[1,14]diazatetracyclo[14.7.2.0^3,6.0^19,24]pentacosa [8,16,18,24]tetraen]-15′-one 13′,13′-dioxide] | 0.54 | – | 329 | –
C[C@@H]1CC/C=C/[C@H](O)[C@@H]2CC[C@H]2CN2C[C@@]3(CCC(F)(F)c4cc(Cl)ccc43)COc3ccc(cc32)C(=O)NS1(=O)=O [Example 8, (1S,3′R,6′R,7′S,8′E,12′R)-6-chloro-4,4-difluoro-7′-hydroxy-12′-methyl-3,4-dihydro-2H,15′H-spiro[naphthalene-1,22′-[20]oxa[13]thia[1,14]diazatetracyclo[14.7.2.0^3,6.0^19,24]pentacosa [8,16,18,24]tetraen]-15′-one 13′,13′-dioxide] | 0.564 | – | 1460 | –
C[C@@H]1[C@@H](C)C/C=C/[C@H](OCCN2CC(F)(F)C2)[C@@H]2CC[C@H]2CN2C[C@@]3(CCCc4cc(Cl)ccc43)COc3ccc(cc32)C(=O)NS1(=O)=O [Example 9, (1S,3′R,6′R,7′S,8′E,11′S,12′R)-6-chloro-7′-(2-(3,3-difluoro-1-azetidinyl)ethoxy)-11′,12′-dimethyl-3,4-dihydro-2H,15′H-spiro[naphthalene-1,22′-[20]oxa[13]thia[1,14]diazatetracyclo[14.7.2.0^3,6.0^19,24]pentacosa[8,16,18,24]tetraen]-15′-one 13′,13′-dioxide] | 0.63 | – | 155 | –
C[C@@H]1[C@@H](C)C/C=C/[C@H](OCCN2CCC(F)(F)CC2)[C@@H]2CC[C@H]2CN2C[C@@]3(CCCc4cc(Cl)ccc43)COc3ccc(cc32)C(=O)NS1(=O)=O [Example 10, (1S,3′R,6′R,7′S,8′E,11′S,12′R)-6-chloro-7′-(2-(4,4-difluoro-1-piperidinyl)ethoxy)-11′,12′-dimethyl-3,4-dihydro-2H,15′H-spiro[naphthalene-1,22′-[20]oxa[13]thia[1,14]diazatetracyclo[14.7.2.0^3,6.0^19,24]pentacosa[8,16,18,24]tetraen]-15′-one-13,13′-dioxide] | 2.97 | – | 630 | –
C[C@@H]1[C@@H](C)C/C=C/[C@H](OCCNc2ccccc2)[C@@H]2CC[C@H]2CN2C[C@@]3(CCCc4cc(Cl)ccc43)COc3ccc(cc32)C(=O)NS1(=O)=O [Example 11, (1S,3′R,6′R,7′S,8′E,11′S,12′R)-6-chloro-11′,12′-dimethyl-7′-(2-(phenylamino)ethoxy)-3,4-dihydro-2H,15′H-spiro[naphthalene-1,22′-[20]oxa[13]thia[1,14]diazatetracyclo[14.7.2.0^3,6.0^19,24]pentacosa[8,16,18,24]tetraen]-15′-one 13′,13′-dioxide] | 5.22 | – | 3650 | –

The next lines start with results.

IC50 [1] [nM] | IC50 [2, 3] [nM] | IC50 [2, 4] [nM] | SMILES | IC50 ([2]; 16 h incubation) [nM]
0.78 | 393 | – | C[C@H]1[C@H](C)/C=C/[C@H](O)[C@@H]2CC[C@H]2CN2C[C@@]3(CCCc4cc(Cl)ccc43)COc3ccc(cc32)C(=O)NS(=O)(=O)[C@@H]1C (single isomer, unassigned) [Example 1042] | –
6.09 | 6740 | – | C[C@@H]1[C@@H](C)/C=C/[C@H](O)[C@@H]2CC[C@H]2CN2C[C@@]3(CCCc4cc(Cl)ccc43)COc3ccc(cc32)C(=O)NS(=O)(=O)[C@H]1C (single isomer, unassigned) [Example 1043] | –
0.211 | – | – | CCC1C(C)C(C)C=CC(O)C2CCC2CN2CC3(CCCc4cc(Cl)ccc43)COc3ccc(cc32)C(=O)NS1(=O)=O (single isomer, unassigned) [Example 1054] | 101
0.394 | – | – | CCC1C(C)C(C)C=CC(O)C2CCC2CN2CC3(CCCc4cc(Cl)ccc43)COc3ccc(cc32)C(=O)NS1(=O)=O (single isomer, unassigned) [Example 1055] | 257
9.7 | 4910 | – | C[C@@H]1CS(=O)(=O)NC(=O)c2ccc3c(c2)N(C[C@@H]2CC[C@H]2C(=O)/C=C/[C@@H]1C)C[C@@]1(CCCc2cc(Cl)ccc21)CO3 (single isomer, unassigned) [Example 1059] | –
0.711 | 1110 | – | CC1C=CC(O)C2CCC2CN2CC3(CCCc4cc(Cl)ccc43)COc3ccc(cc32)C(=O)NS(=O)(=O)CC1C (single isomer, unassigned) [Example 1061] | –
7.88 | – | – | C[C@@H]1/C=C/[C@@H](O)[C@@H]2CC[C@H]2CN2C[C@@]3(CCCc4cc(Cl)ccc43)COc3ccc(cc32)C(=O)NS(=O)(=O)C[C@@H]1C (single isomer, unassigned) [Example 1062] | 12600
17.8 | 15200 | – | CO[C@@H]1/C=C/[C@@H](C)[C@@H](C)CS(=O)(=O)NC(=O)c2ccc3c(c2)N(C[C@@H]2CC[C@H]21)C[C@@]1(CCCc2cc(Cl)ccc21)CO3 (single isomer, unassigned) [Example 1066] | –
0.442 | – | – | C[C@@H]1[C@@H](C)S(=O)(=O)NC(=O)c2ccc3c(c2)N(C[C@@H]2CC[C@H]2[C@H](O)/C=C/[C@@H]1C)C[C@@]1(CCCc2cc(Cl)ccc21)CO3 (single isomer, unassigned) [Example 1068] | 1960
4.37 | 8980 | – | CC1C/C=C/[C@@H](O)[C@@H]2CC[C@H]2CN2C[C@@]3(CCCc4cc(Cl)ccc43)COc3ccc(cc32)C(=O)NS(=O)(=O)C1 (stereo in doubt) [Example 1088, (1S,3′R,6′R,7′R,8′E,11′S)-6-chloro-7′-hydroxy-11′-(methyl)-3,4-dihydro-2H,15′H-spiro [naphthalene-1,22′-[20]oxa[13]thia[1,14]diazatetracyclo[14.7.2.0^3,6.0^19,24]pentacosa [8,16,18,24]tetraen]-15′-one 13′,13′-dioxide] | –
